Reference: patent publication US8563549B2, “Pyrimidine derivatives used as PI-3 kinase inhibitors” (Novartis AG, priority 2006, dated 2013)

Key:
A2780 tumor xenograft = experiment: Efficacy study in A2780 ovarian cancer xenograft model (Biological Method 3); assay type: in vivo, nu/nu mice; conditions: oral
Description: (§1) A2780 ovarian cancer cells obtained from George Coukos (Fox Chase Cancer Center, University of Pennsylvania, Philadelphia, Pa.) were maintained in DMEM (Invitrogen, Inc.) supplemented with 10% heat-inactivated fetal bovine serum with 1% glutamine. Cells were propagated as recommended by the Dr. Coukos and colleagues. Female nu/nu mice (8-12 weeks old, 20-25 g, Charles River) were used for all in vivo pharmacology studies. The mice were housed and maintained in accordance with state and federal guidelines for the humane treatment and care of laboratory animals and received food and water ad libitum. Cancer cells were harvested from mid-log phase cultures using trypsin-EDTA (Invitrogen, Inc.). Five million cells were subcutaneously injected into the right flank of each mouse. Compound treatment was initiated when tumor size reached to 300-400 mm^3 for PK/PD studies and 200-300 mm^3 for efficacy studies. All compound treatment was administrated orally. Tumor volumes were determined by using StudyDirector software.
For efficacy studies, A2780 cancer cells (5×10^6 in 100 μl of DMEM culture medium) were injected subcutaneously into the right flank of each nu/nu mouse. […] Tumor growth and animal body weight was measured twice weekly with daily clinical observation to monitor potential toxicities related to the treatment. […]

[1] = test system: Akt^Ser473 phosphorylation; experiment: In vivo target modulation (PK/PD) in A2780 xenograft tumors (Biological Method 3); set-up: species or system nu/nu mice
Description: as §1, with “Five million cells were subcutaneously injected into the right flank of each mouse. Compound treatment was initiated when tumor size reached to 300-400 mm^3 for PK/PD studies and 200-300 mm^3 for efficacy studies. All compound treatment was administrated orally.” left out
For PK/PD dose-dependent studies, tumor-bearing mice were given a single oral dose of compound at different concentrations (10, 30, 60 and 100 mg/kg or vehicle) and tumors were resected at 10 hr or 24 hr after dosing. […] Supernatants were taken after centrifugation of tumor lysates at 300×g for 10 min at 4° C. and the protein concentration in each supernatant was determined by BCA (BioRad). […] The density of the positive band on the X-ray film was scanned and the target modulation for each compound was expressed as percentage inhibition by each compound compared to vehicle treatment. […]

SMILES | Antitumor activity (A2780 tumor xenograft; b.i.d., 30 mg/kg (FIG. 5)) | Tumor growth inhibition (A2780 tumor xenograft; daily, 100 mg/kg) | Duration of inhibition of Akt^Ser473 (>50% inhibition) [1] [h]
Nc1cc(C(F)(F)F)c(-c2cc(N3CCOCC3)nc(N3CCOCC3)n2)cn1 [Compound 10] | significant antitumor activity | tumor growth stasis | > 10
Nc1ncc(-c2cc(OC3CCOCC3)nc(N3CCOCC3)n2)c(C(F)(F)F)n1 [Compound 66] | – | – | > 10
